According to ChEMBL document CHEMBL1137023, “Synthesis and antibacterial activity of arylpiperazinyl oxazolidinones with diversification of the N-substituents” (2004):
Converted amounts (≈) assume the structure as drawn.

Key:
[1] = tested on: Enterococcus faecalis; assay: Minimum inhibitory concentration against Enterococcus faecalis ATCC 29212; type: functional
[2] = tested on: Staphylococcus aureus; assay: Minimum inhibitory concentration against Staphylococcus aureus ATCC 25923; type: functional
[3] = Minimum inhibitory concentration against […] ATCC 13813; type: functional; settings: Streptococcus agalactiae
[4] = tested on: Staphylococcus aureus; assay: Antibacterial activity against Staphylococcus aureus was evaluated in infected mice; type: functional
[5] = tested on: Streptococcus pyogenes; assay: Minimum inhibitory concentration against Streptococcus pyogenes ATCC 8668

SMILES | MIC [1] | MIC [2] | MIC [3] | ED50 [4] | MIC [5]
CC(=S)NC[C@H]1CN(c2ccc(N3CCN(c4cccc(Cl)c4)CC3)c(F)c2)C(=O)O1 | 0.06 µg/mL (≈ 0.13 µM) | 0.03 µg/mL (≈ 0.0648 µM) | 0.03 µg/mL (≈ 0.0648 µM) | > 16 mg/kg | 
NC(=S)NC[C@H]1CN(c2ccc(N3CCN(c4cccc(C(F)(F)F)c4)CC3)c(F)c2)C(=O)O1 | 0.25 µg/mL (≈ 0.502 µM) | 0.25 µg/mL (≈ 0.502 µM) | 0.12 µg/mL (≈ 0.241 µM) |  | 
NC(=S)NC[C@H]1CN(c2ccc(N3CCN(c4ccccc4Cl)CC3)c(F)c2)C(=O)O1 | 0.25 µg/mL (≈ 0.539 µM) | 0.12 µg/mL (≈ 0.259 µM) | 0.12 µg/mL (≈ 0.259 µM) |  | 
NC(=S)NC[C@H]1CN(c2ccc(N3CCN(c4ccccc4Cl)CC3)cc2)C(=O)O1 | 0.06 µg/mL (≈ 0.135 µM) | 0.03 µg/mL (≈ 0.0673 µM) | 0.06 µg/mL (≈ 0.135 µM) |  | 
COC(=S)NC[C@H]1CN(c2ccc(N3CCN(c4ccccc4)CC3)c(F)c2)C(=O)O1 | 0.25 µg/mL (≈ 0.562 µM) | 0.25 µg/mL (≈ 0.562 µM) | 0.12 µg/mL (≈ 0.27 µM) |  | 
CC(=S)NC[C@H]1CN(c2ccc(N3CCN(c4cccc(F)c4)CC3)c(F)c2)C(=O)O1 | 0.03 µg/mL (≈ 0.0672 µM) | 0.12 µg/mL (≈ 0.269 µM) | 0.12 µg/mL (≈ 0.269 µM) |  | 
CC(=S)NC[C@H]1CN(c2ccc(N3CCN(c4ccccc4C)CC3)c(F)c2)C(=O)O1 | 0.05 µg/mL (≈ 0.113 µM) | 0.12 µg/mL (≈ 0.271 µM) | 0.12 µg/mL (≈ 0.271 µM) |  | 
COc1ccccc1N1CCN(c2ccc(N3C[C@H](CNC(N)=S)OC3=O)cc2F)CC1 | 0.25 µg/mL (≈ 0.544 µM) | 0.25 µg/mL (≈ 0.544 µM) | 0.25 µg/mL (≈ 0.544 µM) |  | 
CSC(=S)NC[C@H]1CN(c2ccc(N3CCN(c4ccccn4)CC3)c(F)c2)C(=O)O1 | 0.12 µg/mL (≈ 0.26 µM) | 0.06 µg/mL (≈ 0.13 µM) | 0.25 µg/mL (≈ 0.542 µM) | > 16 mg/kg | 
NC(=S)NC[C@H]1CN(c2ccc(N3CCN(c4cccc(Cl)c4)CC3)c(F)c2)C(=O)O1 | 0.06 µg/mL (≈ 0.129 µM) | 0.02 µg/mL (≈ 0.0431 µM) | 0.008 µg/mL (≈ 0.0172 µM) | > 16 mg/kg | 
CC(=S)NC[C@H]1CN(c2ccc(N3CCN(c4ccc(Cl)cc4)CC3)c(F)c2)C(=O)O1 | 0.25 µg/mL (≈ 0.54 µM) | 0.12 µg/mL (≈ 0.259 µM) | 0.25 µg/mL (≈ 0.54 µM) |  | 
COc1cccc(N2CCN(c3ccc(N4C[C@H](CNC(=S)SC)OC4=O)cc3)CC2)c1 | 0.12 µg/mL (≈ 0.254 µM) | 0.12 µg/mL (≈ 0.254 µM) | 0.25 µg/mL (≈ 0.529 µM) |  | 
CC(=S)NC[C@H]1CN(c2ccc(N3CCN(c4ccccc4)CC3)c(F)c2)C(=O)O1 | 0.25 µg/mL (≈ 0.583 µM) | 0.12 µg/mL (≈ 0.28 µM) | 0.12 µg/mL (≈ 0.28 µM) |  | 
O=C1O[C@@H](CO[n+]2ccco2)CN1c1ccc(N2CCN(c3ccccc3Cl)CC2)c(F)c1 | > 64 µg/mL | > 64 µg/mL | > 64 µg/mL |  | > 64 µg/mL
NC(=S)NC[C@H]1CN(c2ccc(N3CCN(c4ccccc4)CC3)cc2)C(=O)O1 | 0.12 µg/mL (≈ 0.292 µM) | 0.12 µg/mL (≈ 0.292 µM) | 0.25 µg/mL (≈ 0.607 µM) |  | 
CSC(=S)NC[C@H]1CN(c2ccc(N3CCN(c4ccccc4C)CC3)c(F)c2)C(=O)O1 | 0.12 µg/mL (≈ 0.253 µM) | 0.12 µg/mL (≈ 0.253 µM) | 0.12 µg/mL (≈ 0.253 µM) |  | 
COC(=S)NC[C@H]1CN(c2ccc(N3CCN(c4cccc(OC)c4)CC3)c(F)c2)C(=O)O1 | 0.12 µg/mL (≈ 0.253 µM) | 0.12 µg/mL (≈ 0.253 µM) | 0.12 µg/mL (≈ 0.253 µM) |  | 
NC(=S)NC[C@H]1CN(c2ccc(N3CCN(c4ccc(Cl)cc4)CC3)c(F)c2)C(=O)O1 | 0.5 µg/mL (≈ 1.08 µM) | 0.12 µg/mL (≈ 0.259 µM) | 0.12 µg/mL (≈ 0.259 µM) |  | 
NC(=S)NC[C@H]1CN(c2ccc(N3CCN(c4ccccn4)CC3)c(F)c2)C(=O)O1 | 0.25 µg/mL (≈ 0.581 µM) | 0.12 µg/mL (≈ 0.279 µM) | 0.12 µg/mL (≈ 0.279 µM) |  | 
CC(=S)NC[C@H]1CN(c2ccc(N3CCN(c4ccccn4)CC3)c(F)c2)C(=O)O1 | 0.25 µg/mL (≈ 0.582 µM) | 0.06 µg/mL (≈ 0.14 µM) | 0.12 µg/mL (≈ 0.279 µM) |  | 
O=C1O[C@@H](COc2ccccn2)CN1c1ccc(N2CCN(c3ccccc3Cl)CC2)c(F)c1 | > 64 µg/mL | > 64 µg/mL | > 64 µg/mL |  | > 64 µg/mL
COC(=S)NC[C@H]1CN(c2ccc(N3CCN(c4cccc(Cl)c4)CC3)c(F)c2)C(=O)O1 | 0.12 µg/mL (≈ 0.251 µM) | 0.12 µg/mL (≈ 0.251 µM) | 0.12 µg/mL (≈ 0.251 µM) |  | 
COc1cccc(N2CCN(c3ccc(N4C[C@H](CNC(N)=S)OC4=O)cc3F)CC2)c1 | 0.06 µg/mL (≈ 0.131 µM) | 0.03 µg/mL (≈ 0.0653 µM) | 0.06 µg/mL (≈ 0.131 µM) |  | 
NC(=S)NC[C@H]1CN(c2ccc(N3CCN(c4ccccc4)CC3)c(F)c2)C(=O)O1 | 0.12 µg/mL (≈ 0.279 µM) | 0.06 µg/mL (≈ 0.14 µM) | 0.06 µg/mL (≈ 0.14 µM) |  | 
O=C1O[C@@H](COC2CNCCN2)CN1c1ccc(N2CCN(c3ccccc3Cl)CC2)c(F)c1 (stereo partly drawn) | > 64 µg/mL | > 64 µg/mL | > 64 µg/mL |  | > 64 µg/mL
CC(=S)NC[C@H]1CN(c2ccc(N3CCN(c4ccccc4Cl)CC3)c(F)c2)C(=O)O1 | > 64 µg/mL | 0.12 µg/mL (≈ 0.259 µM) | 0.12 µg/mL (≈ 0.259 µM) |  | 
Cc1ccccc1N1CCN(c2ccc(N3C[C@H](CNC(N)=S)OC3=O)cc2F)CC1 | 0.25 µg/mL (≈ 0.564 µM) | 0.12 µg/mL (≈ 0.271 µM) | 0.12 µg/mL (≈ 0.271 µM) |  | 
CSC(=S)NC[C@H]1CN(c2ccc(N3CCN(c4cccc(Cl)c4)CC3)c(F)c2)C(=O)O1 | 0.5 µg/mL (≈ 1.01 µM) | 0.12 µg/mL (≈ 0.242 µM) | 1 µg/mL (≈ 2.02 µM) |  | 
COC(=S)NC[C@H]1CN(c2ccc(N3CCN(c4ccccn4)CC3)c(F)c2)C(=O)O1 | 0.12 µg/mL (≈ 0.269 µM) | 0.12 µg/mL (≈ 0.269 µM) | 0.06 µg/mL (≈ 0.135 µM) | > 16 mg/kg | 
CC(=O)NC[C@H]1CN(c2ccc(N3CCOCC3)c(F)c2)C(=O)O1 [LINEZOLID] |  | 0.25 µg/mL (≈ 0.741 µM) | 0.5 µg/mL (≈ 1.48 µM) | 4 mg/kg | 0.5 µg/mL (≈ 1.48 µM)
